Laboratory results from patent US20090143279A1 (priority 2007, published 2009).
Where two headings read alike, the source gives them in different places.

Key:
[1] = system: mitochondrial membrane potential; format: cell-based, mouse; details: for ΔΨm (composite Z-score): normalized score vs mock-treated (DMSO) wells
[2] = system: reactive oxygen species; format: cell-based, mouse; details: for ROS (composite Z-score): normalized score vs mock-treated (DMSO) wells
[3] = system: OXPHOS gene expression; format: cell-based, mouse; details: for GE-HTS (composite Z-score): normalized score vs mock-treated (DMSO) wells
[4] = system: nuOXPHOS transcripts; format: cell-based, mouse; details: for nucOX (composite Z-score): normalized score vs mock-treated (DMSO) wells
[5] = system: mtOXPHOS transcripts; format: cell-based, mouse; details: for mitoOX (composite Z-score): normalized score vs mock-treated (DMSO) wells
[6] = system: cytochrome c; format: cell-based, mouse; details: for cyt c (composite Z-score): normalized score vs mock-treated (DMSO) wells
Chain of cytochrome c (P62897 whole entry): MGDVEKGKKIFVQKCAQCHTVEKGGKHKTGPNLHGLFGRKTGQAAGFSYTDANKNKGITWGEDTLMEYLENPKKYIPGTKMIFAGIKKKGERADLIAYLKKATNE

[7] = system: C2C12 myotubes; details: for Viability (composite Z-score): normalized score vs mock-treated (DMSO) wells
[8] = system: cellular dehydrogenase activity; details: for MTT (composite Z-score): normalized score vs mock-treated (DMSO) wells
[9] = composite Z-score vs DMSO, Conc 20 μM
[10] = normalized composite Z-score vs mock-treated (DMSO) wells, Conc 20 μM
[11] = composite Z-score vs DMSO wells, Conc 20 μM
[12] = composite Z-score vs mock-treated (DMSO) wells, Conc 20 μM
[13] = 20 μM, composite Z-score vs DMSO

## OC[C@H]1O[C@@H](n2cnc3c(NCc4ccco4)ncnc32)[C@H](O)[C@@H]1O [kinetin riboside]
[1]; [9]
  ΔΨm: −1.350
[2]; [9]
  ROS: −2.722
[3]; [9]
  GE-HTS: 0.882
[4]; [9]
  nucOX: 0.853
[5]; [9]
  mitoOX: 0.750
[6]; [9]
  cyt c: −2.612
[7]; [9]
  Viability: −1.883
[8]; [9]
  MTT: −4.309

## COc1cc2c(cc1OC)[C@@]13CCN4CC5=CCO[C@H]6CC(=O)N2[C@H]1[C@H]6[C@H]5C[C@H]43 [brucine]
[1]; Conc 20 μM
  ΔΨm (composite Z-score): 0.552
[2]; Conc 20 μM
  ROS (composite Z-score): 0.930
[3]; Conc 20 μM
  GE-HTS (composite Z-score): −1.106
[4]; Conc 20 μM
  nucOX (composite Z-score): −1.084
[5]; Conc 20 μM
  mitoOX (composite Z-score): −0.887
[6]; Conc 20 μM
  cyt c (composite Z-score): 0.660
[7]; Conc 20 μM
  Viability (composite Z-score): 1.605
[8]; Conc 20 μM
  MTT (composite Z-score): −1.270

## COc1ccc2c(c1O)-c1c(OC)c(OC)cc3c1[C@H](C2)N(C)CC3 [isocorydine]
[1]; Conc 11.72 μM
  ΔΨm (composite Z-score): −1.052
[1]; Conc 20 μM
  ΔΨm (composite Z-score): −0.017
[2]; Conc 11.72 μM
  ROS (composite Z-score): 1.214
[2]; Conc 20 μM
  ROS (composite Z-score): −0.096
[3]; Conc 11.72 μM
  GE-HTS (composite Z-score): 0.084
[3]; Conc 20 μM
  GE-HTS (composite Z-score): −0.462
[4]; Conc 11.72 μM
  nucOX (composite Z-score): 0.451
[4]; Conc 20 μM
  nucOX (composite Z-score): −0.463
[5]; Conc 11.72 μM
  mitoOX (composite Z-score): −0.664
[5]; Conc 20 μM
  mitoOX (composite Z-score): −0.322
[6]; Conc 11.72 μM
  cyt c (composite Z-score): 0.632
[6]; Conc 20 μM
  cyt c (composite Z-score): 0.355
[7]; Conc 11.72 μM
  Viability (composite Z-score): −1.678
[7]; Conc 20 μM
  Viability (composite Z-score): 1.230
[8]; Conc 11.72 μM
  MTT (composite Z-score): −1.041
[8]; Conc 20 μM
  MTT (composite Z-score): −1.215

## CC1=C(CCC(=O)O)c2cc3[nH]c(cc4nc(cc5[nH]c(cc1n2)c(C)c5C(C)O)C(C)=C4C(C)O)c(C)c3CCC(=O)O (stereo not shown) [haematoporphyrin]
[1]; [9]
  ΔΨm: −3.662
[2]; [9]
  ROS: 1.666
[3]; [9]
  GE-HTS: 0.309
[4]; [9]
  nucOX: 0.251
[5]; [9]
  mitoOX: 0.416
[6]; [9]
  cyt c: 0.324
[7]; [9]
  Viability: −1.933
[8]; [9]
  MTT: −3.312

## O=C(Oc1cc(O)cc2c1C[C@@H](OC(=O)c1cc(O)c(O)c(O)c1)[C@@H](c1cc(O)c(O)c(O)c1)O2)c1cc(O)c(O)c(O)c1 [epigallocatechin 3,5-digallate]
[1]; [10]
  ΔΨm: −2.135
[2]; [10]
  ROS: 0.118
[3]; [10]
  GE-HTS: −1.581
[4]; [10]
  nucOX: −1.625
[5]; [10]
  mitoOX: −1.133
[6]; [10]
  cyt c: 1.040
[7]; [10]
  Viability: 0.969
[8]; [10]
  MTT: −1.667

## O=c1c2ccccc2oc2ccc(O)cc12 [2-hydroxyxanthone]
[1]; [9]
  ΔΨm: −0.245
[2]; [9]
  ROS: 1.660
[3]; [9]
  GE-HTS: −0.364
[4]; [9]
  nucOX: −0.173
[5]; [9]
  mitoOX: −0.652
[6]; [9]
  cyt c: 0.238
[7]; [9]
  Viability: −0.402
[8]; [9]
  MTT: −1.863

## NCCc1ccc(O)c(O)c1 [dopamine]
[1]
  ΔΨm: −0.849
[2]
  ROS: −0.046
[3]
  GE-HTS: −0.337
[4]
  nucOX: −0.112
[5]
  mitoOX: −0.655
[6]
  cyt c: 0.007
[7]
  Viability: −0.964
[8]
  MTT: −0.754

## 3-nor-3-oxopanasinsan-6-ol
[1]; [10]
  ΔΨm: −0.006
[2]; [10]
  ROS: 0.172
[3]; [10]
  GE-HTS: −0.605
[4]; [10]
  nucOX: −0.831
[5]; [10]
  mitoOX: 0.004
[6]; [10]
  cyt c: 0.864
[7]; [10]
  Viability: 0.209
[8]; [10]
  MTT: −0.492

## CC1=C2C(=CO[C@H](C)[C@H]2C)C(O)=C(C(=O)O)C1=O [citrinin]
[1]; [11]
  ΔΨm: −0.590
[2]; [11]
  ROS: 0.122
[3]; [11]
  GE-HTS: 0.608
[4]; [11]
  nucOX: 0.730
[5]; [11]
  mitoOX: 0.218
[6]; [11]
  cyt c: 0.012
[7]; [11]
  Viability: −0.040
[8]; [11]
  MTT: −0.980

## COC1=C[C@@H]2[C@@H]3Cc4ccc(OC)c(O)c4[C@]2(CCN3C)CC1=O [sinomenine]
[1]; [9]
  ΔΨm: −0.657
[2]; [9]
  ROS: 0.777
[3]; [9]
  GE-HTS: −0.875
[4]; [9]
  nucOX: −0.565
[5]; [9]
  mitoOX: −1.253
[6]; [9]
  cyt c: −0.117
[7]; [9]
  Viability: −0.937
[8]; [9]
  MTT: −1.489

## theaflavin monogallate
[1]; [10]
  ΔΨm: −0.581
[2]; [10]
  ROS: −0.820
[3]; [10]
  GE-HTS: −0.211
[4]; [10]
  nucOX: −0.017
[5]; [10]
  mitoOX: −0.612
[6]; [10]
  cyt c: 1.252
[7]; [10]
  Viability: 0.945
[8]; [10]
  MTT: −0.786

## COc1ccc(-c2cc(=O)c3ccc(OC)cc3o2)cc1 [4,7-dimethoxyflavone]
[1]; [10]
  ΔΨm: −0.795
[2]; [10]
  ROS: 1.067
[3]; [10]
  GE-HTS: 1.306
[4]; [10]
  nucOX: 1.526
[5]; [10]
  mitoOX: 0.539
[6]; [10]
  cyt c: 0.031
[7]; [10]
  Viability: −0.067
[8]; [10]
  MTT: −0.472

## C=C1C(=O)O[C@H]2C[C@@H]1C(OC(C)=O)C/C(C)=C/CC/C(C)=C/CC[C@@]2(C)O (stereo partly shown) [crassin acetate]
[1]; [12]
  ΔΨm: 0.374
[2]; [12]
  ROS: −1.394
[3]; [12]
  GE-HTS: −0.720
[4]; [12]
  nucOX: −0.685
[5]; [12]
  mitoOX: −0.703
[6]; [12]
  cyt c: −1.840
[7]; [12]
  Viability: −2.757
[8]; [12]
  MTT: −1.220

## COC(=O)C[C@H]1C(C)(C)C(=O)[C@@H]2CC3C4=CC(=O)O[C@@H](c5ccoc5)[C@]4(C)CC[C@@H]3[C@@]1(C)C2=O (stereo partly shown) [carapin]
[1]; [12]
  ΔΨm: −0.524
[2]; [12]
  ROS: 1.897
[3]; [12]
  GE-HTS: 0.512
[4]; [12]
  nucOX: 0.665
[5]; [12]
  mitoOX: 0.058
[6]; [12]
  cyt c: −0.096
[7]; [12]
  Viability: 1.424
[8]; [12]
  MTT: −0.925

## COc1ccc2c(c1)O[C@@H]1COc3cc(OC)c(OC)cc3[C@@H]1C2=O [mundoserone, reference compound]
[1]; [12]
  ΔΨm: 0.837
[2]; [12]
  ROS: −0.608
[3]; [12]
  GE-HTS: −0.606
[4]; [12]
  nucOX: −0.643
[5]; [12]
  mitoOX: −0.452
[6]; [12]
  cyt c: 0.418
[7]; [12]
  Viability: −0.425
[8]; [12]
  MTT: −1.681

## CC1C(=NO)CC2CC1C2(C)C (stereo not shown) [3-pinanone oxime]
[1]; [10]
  ΔΨm: −0.415
[2]; [10]
  ROS: −0.152
[3]; [10]
  GE-HTS: 0.141
[4]; [10]
  nucOX: 0.031
[5]; [10]
  mitoOX: 0.386
[6]; [10]
  cyt c: 0.014
[7]; [10]
  Viability: −0.344
[8]; [10]
  MTT: −0.210

## OC[C@@H](O)[C@@H](OC1O[C@H](CO)[C@@H](O)[C@H](O)[C@H]1O)[C@H](O)[C@@H](O)CO (stereo partly shown) [glucitol-4-gucopyanoside]
[1]; Conc 20 μM
  ΔΨm (composite Z-score): −0.454
[2]; Conc 20 μM
  ROS (composite Z-score): 0.351
[3]; Conc 20 μM
  GE-HTS (composite Z-score): −1.143
[4]; Conc 20 μM
  nucOX (composite Z-score): −1.087
[5]; Conc 20 μM
  mitoOX (composite Z-score): −1.006
[6]; Conc 20 μM
  cyt c (composite Z-score): 0.305
[7]; Conc 20 μM
  Viability (composite Z-score): −0.508
[8]; Conc 20 μM
  MTT (composite Z-score): −0.795

## N=c1ccn2c(n1)O[C@H]1[C@H](O)[C@@H](CO)O[C@H]12 [ancitabine]
[1]; Conc 20 μM
  ΔΨm (composite Z-score): −0.986
[2]; Conc 20 μM
  ROS (composite Z-score): −0.189
[3]; Conc 20 μM
  GE-HTS (composite Z-score): −1.115
[4]; Conc 20 μM
  nucOX (composite Z-score): −1.182
[5]; Conc 20 μM
  mitoOX (composite Z-score): −0.726
[6]; Conc 20 μM
  cyt c (composite Z-score): −0.158
[7]; Conc 20 μM
  Viability (composite Z-score): −0.655
[8]; Conc 20 μM
  MTT (composite Z-score): −2.731

## Fc1ccc(C(c2ccccc2)(c2ccccc2F)n2ccnc2)cc1 (stereo not shown) [flutrimazole]
[1]; [13]
  ΔΨm: −0.429
[2]; [13]
  ROS: 0.781
[3]; [13]
  GE-HTS: −0.763
[4]; [13]
  nucOX: −0.592
[5]; [13]
  mitoOX: −0.915
[6]; [13]
  cyt c: 0.904
[7]; [13]
  Viability: 0.858
[8]; [13]
  MTT: −0.356
